From patent publication US7288567B2, “Inhibitors of histone deacetylase” (Methylgene Inc., priority 2000, dated 2007)
Structures can show the parent of a compound that is named as a salt.

Target: T1, recombinant human HDAC-1 enzyme (rHDAC-1) (Homo sapiens, UniProt Q13547)
T1 construct: made in house; host or cells: Baculovirus insect cell expression system
Assay: Histone deacetylase inhibition, recombinant human HDAC-1
Type: biochemical
Conditions: not given
Experimental: The reaction was stopped by adding acetic acid (0.04 M, final concentration) and HCl (250 mM, final concentration). The mixture was extracted with ethyl acetate and the released [^3H]-acetic acid was quantified by scintillation counting. For inhibition studies, the enzyme was preincubated with compounds at 4° C. for 30 minutes prior to initiation of the enzymatic assay. IC50 values for HDAC enzyme inhibitors were determined by performing dose response curves with individual compounds and determining the concentration of inhibitor producing fifty percent of the maximal inhibition.

T1 sequence (Q13547 whole entry): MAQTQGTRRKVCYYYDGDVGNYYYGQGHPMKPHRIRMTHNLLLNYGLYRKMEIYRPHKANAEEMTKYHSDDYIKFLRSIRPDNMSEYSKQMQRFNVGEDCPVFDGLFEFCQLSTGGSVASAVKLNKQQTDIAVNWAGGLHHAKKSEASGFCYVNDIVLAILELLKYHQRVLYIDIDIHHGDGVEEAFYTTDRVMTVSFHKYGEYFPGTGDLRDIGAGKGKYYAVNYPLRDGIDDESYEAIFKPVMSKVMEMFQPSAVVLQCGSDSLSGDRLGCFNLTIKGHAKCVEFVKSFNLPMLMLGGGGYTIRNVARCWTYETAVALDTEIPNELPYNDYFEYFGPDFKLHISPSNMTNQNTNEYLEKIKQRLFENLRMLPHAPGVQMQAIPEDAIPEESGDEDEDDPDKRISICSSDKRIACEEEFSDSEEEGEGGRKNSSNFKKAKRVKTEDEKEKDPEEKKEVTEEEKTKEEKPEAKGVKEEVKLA

SMILES | IC50 [nM]
O=C(CCCCCNCc1ccc2ccccc2c1)NO [Compound 223, N-Hydroxy-6-N-(2-naphthylmethylamino)hexanamide trifluoroacetate] | 2000

Same assay, conditions: cloned recombinant human HDAC-1, Baculovirus insect cell expression; read-out: rHDAC-1 IC50

SMILES | IC50 [nM]
CC(CCCCC(=O)c1ccc2ccccc2c1)CC(=O)Nc1ccccc1N (centres unmarked) [Compound 198, (Z)-N-(2-Aminophenyl)-3-methyl-7-(2-naphthoyl)heptanamide] | 16000
Nc1ccccc1NC(=O)CCCCS(=O)(=O)CC(=O)c1ccc2ccccc2c1 [Compound 230a, N-(2-Aminophenyl)-5-(2-naphthoylmethylsulfonyl)pentanamide] | 5000
Nc1ccccc1NC(=O)CCCCCN1C(=O)c2ccc(O)cc2C1=O [Compound 243g, N-(2-Aminophenyl)-6-(5-hydroxy-N-phthaloyl)hexanamide] | 3000
CN(CCCCCC(=O)NO)Cc1ccc2ccccc2c1 [Compound 209, N-Hydroxy-N-(2-naphthylmethyl-methylamino)hexanamide] | 50
O=C(CCCCCCC(=O)c1cc2ccccc2[nH]1)NO [Compound 100, N-Hydroxy-7-[2-(indolyl)carbonyl]heptanamide] | 4000
CC(C)(C)OC(=O)N(CCCCCC(=O)NO)Cc1ccc2ccccc2c1 [Compound 222, N-Hydroxy-6-N-(tert-butoxycarbonyl-2-naphthylmethylamino)hexanamide] | 100
O=C(CCCCCC(=O)c1ccc(-c2ccccc2)cc1)Nc1n[nH]c(=S)s1 [Compound 128, N-(4,5-Dihydro-5-thioxo-1,3,4-thiadiazol-2-yl)-6-[(4-biphenyl)carbonyl]hexanamide] | 19000
O=C(CCCCCCC(=O)c1ccc(N2CCNCC2)cc1)NO [Compound 138c2] | 30
Nc1ccccc1NC(=O)CCCCCN1C(=O)c2ccc([N+](=O)[O-])cc2C1=O [Compound 243e, N-(2-Aminophenyl)-6-(5-nitro-N-phthaloyl)hexanamide] | 12000
CN(CCCCC(=O)NO)Cc1ccc2ccccc2c1 [Compound 213, N-Hydroxy-5-N-(2-naphthylmethyl-methylamino)pentanamide] | 3000
Nc1ccccc1NC(=O)CCCCCN1C(=O)c2cc(Cl)c(Cl)cc2C1=O [Compound 243f, N-(2-Aminophenyl)-6-(5,6-dichloro-N-phthaloyl)hexanamide] | 3000
Nc1ccccc1NC(=O)CCCCCCC(=O)c1cccc(-c2ccccc2)c1 [Compound 132, N-(2-Aminophenyl)-7-[(3-biphenyl)carbonyl]heptanamide] | 800
Nc1ccccc1NC(=O)CCCCCN1C(=O)c2cccnc2C1=O [Compound 246a] | 5000
Nc1ccccc1NC(=O)CCCCCCCC(=O)c1ccc(-c2ccccc2)cc1 [Compound 130, N-(2-Aminophenyl)-8[(4-biphenyl)carbonyl]octanamide] | 3000
CN(CCCCC(=O)NO)CCc1ccc2ccccc2c1 [Compound 216, N-Hydroxy-5-N-[2-(2-naphthylethyl)-methylamino]pentanamide] | 300
O=C(CCCCCN(Cc1ccc2ccccc2c1)C(=O)OCc1ccccc1)NO [Compound 220a, N-Hydroxy-6-N-(Benzyloxycarbonyl-2-naphthylmethylamino)hexanamide] | 20
O=C(CCCCCCC(=O)c1ccc(-c2ccccc2)cc1)Nc1n[nH]c(=S)s1 [Compound 79, N-(4,5-Dihydro-5-thioxo-1,3,4-thiadiazol-2-yl)-7-[(4-biphenyl)carbonyl]-heptanamide] | 9000
Nc1ccccc1NC(=O)CCCCCN1C(=O)c2cccc3c(Br)ccc(c23)C1=O [Compound 251b, N-(2-Aminophenyl)-6-[2-(6-bromo-1,3-dioxo-1H,3H-benzo[de]isoquinolinyl)]-hexanamide] | 1000
COc1ccc(N)c(NC(=O)CCCCCCC(=O)c2ccc(-c3ccccc3)cc2)c1 [Compound 83, N-(3-(4-Amino)anisole)-7-[(4-biphenyl)carbonyl]heptanamide] | 25000
Nc1ccccc1NC(=O)CCCCSCC(=O)c1ccc2ccccc2c1 [Compound 227a, N-(2-Aminophenyl)-5-(2-naphthoylmethylsulfanyl)pentanamide] | 3000
CC(C)(C)OC(=O)N(CCCCCC(=O)Nc1ccccc1N)Cc1ccc2ccccc2c1 [Compound 224, N-(2-Aminophenyl)-6-N-(tert-butoxycarbonyl-2-naphthylmethylamino)-hexanamide] | 3000
Nc1ccccc1NC(=O)CCCCCCC(=O)c1ccc(-c2ccc(CN3CCOCC3)cc2)cc1 [Compound 157, N-(2-Aminophenyl)-7-[4-(4-(N-methylmorpholinyl)phenyl)benzoyl]heptanamide] | 4000
Nc1ccccc1NC(=O)CCCCCN1C(=O)c2ccncc2C1=O [Compound 246b] | 14000

SMILES | IC50 [nM]
O=C(CCCCCN(Cc1ccccc1)Cc1ccc2ccccc2c1)NO [Compound 220b, N-Hydroxy-6-N-(Benzyl-2-naphthylmethylamino)hexanamide] | 100
Nc1ccccc1NC(=O)CCCCCCC(O)c1cccc(-c2ccccc2)c1 (centres unmarked) [Compound 133, N-(2-Aminophenyl)-8-(3-biphenyl)-8-hydroxy-octanamide] | 1000
CC(C)(C)OC(=O)N1CCN(c2ccc(C(=O)CCCCCCC(=O)NO)cc2)CC1 [Compound 138c1, N-Hydroxy-7-[4-(1-(4-tert-butyloxycarbonylpiperazinyl))benzoyl]heptanamide] | 30
O=C(CCCCS(=O)(=O)CC(=O)c1ccc2ccccc2c1)NO [Compound 229a, N-Hydroxy-5-(2-naphthoylmethylsulfonyl)pentanamide] | 1000
Nc1ccccc1NC(=O)CCCCCC(=O)c1ccc(-c2ccccc2)cc1 [Compound 129, N-(2-Aminophenyl)-6-[(biphenyl)carbonyl]hexanamide] | 1000
C/C(=C/C(=O)Nc1ccccc1N)CCCCC(=O)c1ccc2ccccc2c1 [Compound 194, (Z)-N-(2-Aminophenyl)-3-methyl-7-(2-naphthoyl)-2-heptenamide] | 24000
O=C(CCCCSCC(=O)c1ccc2ccccc2c1)NO [Compound 226a, N-Hydroxy-5-(2-naphthoylmethylsulfanyl)pentanamide] | 7
O=C(CCCCS(=O)(=O)CC(=O)c1ccc(-c2ccccc2)cc1)NO [Compound 229b, N-Hydroxy-5-(4-biphenylcarbonylmethylsulfonyl)pentanamide] | 40
Nc1ccccc1NC(=O)CCCCCN1C(=O)c2cc(O)c(CN3CCCCC3)cc2C1=O [Compound 243h, N-(2-Aminophenyl)-6-(5-hydroxy-6-(1-methylpiperidinyl)-N-phthaloyl)-hexanamide] | 3000
Nc1ccccc1NC(=O)CCCCN1C(=O)c2ccccc2C1=O [Compound 243b, N-(2-Aminophenyl)-5-(N-phthaloyl)pentanamide] | 99000
CN(CCCCCC(=O)Nc1ccccc1N)Cc1ccc2ccccc2c1 [Compound 210, N-(2-Aminophenyl)-N-(2-naphthylmethyl-methylamino)hexanamide] | 10000
Nc1ccccc1NC(=O)CCCCS(=O)(=O)CC(=O)c1ccc(-c2ccccc2)cc1 [Compound 230b, N-(2-Aminophenyl)-5-(4-biphenylcarbonylmethylsulfonyl)pentanamide] | 12000
Nc1ccccc1NC(=O)CCCCSCC(=O)c1ccc(-c2ccccc2)cc1 [Compound 227b, N-(2-Aminophenyl)-5-(4-biphenylcarbonylmethanesulfanyl)pentanamide] | 3000
O=C(CCCCCCC(=O)c1cccc(-c2ccccc2)c1)NO [Compound 131, N-Hydroxy-7-[(3-biphenyl)carbonyl]heptanamide] | 8
O=C(CCCCSCC(=O)c1ccc(-c2ccccc2)cc1)NO [Compound 226b, N-Hydroxy-5-(4-biphenylcarbonylmethanesulfanyl)pentanamide] | 6
Nc1ccccc1NC(=O)CCCCCCC(=O)c1ccccc1 [Compound 53a, N-(2-Aminophenyl)-7-benzoylheptanamide] | 600
CON=C(CCCCCCC(=O)Nc1ccccc1N)c1cccc(-c2ccccc2)c1 (mixture of isomers) [Compound 135, N-(2-Aminophenyl)-8-(E)-O-methyl-oximino-8-(3-biphenyl)octanamide] | 2000
O=C(CCCCCCC(=O)c1ccccc1)Nc1ccccc1O [Compound 86, N-(2-Hydroxyphenyl)-7-(benzoyl)heptanamide] | 5000
Nc1ccccc1NC(=O)CCCCCCN1C(=O)c2ccccc2C1=O [Compound 243c, N-(2-Aminophenyl)-7-(N-phthaloyl)heptanamide] | 4000
COc1ccc(-c2ccc(C(=O)CCCCCCC(=O)NO)cn2)cc1OC [Compound 150, N-Hydroxy-7-[5-(2-(3,4-dimethoxyphenyl)pyridyl)carbonyl]heptanamide] | 50
Nc1ccccc1NC(=O)CCCCCCOc1ccc(-c2ccccc2)cc1 [Compound 234, N-(2-Aminophenyl)-7-(4-biphenyloxy)heptanamide] | 1000
Nc1ccccc1NC(=O)CCCCCN1Cc2ccccc2C1=O [Compound 248, N-(2-Aminophenyl)-6-[2-(1-oxo-1,3-dihydro-isoindolyl)]hexanamide] | 4000
O=C(CCCCCCC(=O)c1ccc(NCc2cccnc2)cc1)NO [Compound 138f, N-Hydroxy-7-[4(N-3-aminomethylpyridyl)benzoyl]heptanamide] | 20
